Experimental data published in publication PMC7411887, “New Paracyclophanylthiazoles with Anti-Leukemia Activity: Design, Synthesis, Molecular Docking, and Mechanistic Studies” (Molecules, 2020).
Like-named read-outs stand apart in the source and are kept apart here.

Key:
786-0 = assay: NCI five-dose assay; format: cell-based; details: Renal Cancer 786-0
COLO 205 = assay: NCI five-dose assay; format: cell-based, human; details: Colon Cancer COLO 205
SK-MEL-2 = assay: NCI five-dose assay; format: cell-based; details: Melanoma SK-MEL-2
[1] = test system: 60 human tumor cell lines; assay: NCI five-dose assay, full panel; format: cell-based; details: for GI50: Homo sapiens
Description: The outcomes were used to form log concentration vs. percentage growth inhibition curves and three response parameters (GI50, total growth inhibition (TGI), and LC50) were calculated for each cell line (Table 2).
The criterion for selectivity of a compound depends upon the ratio obtained by dividing the full-panel MID (the average sensitivity of all cell lines toward the test agent) (μM) by the individual subpanel MIDs (μM).

M14 = assay: NCI five-dose assay; format: cell-based; details: Homo sapiens, Melanoma M14
LOX IMVI = assay: NCI five-dose assay; format: cell-based; details: Homo sapiens, Melanoma LOX IMVI
A549/ATCC = assay: NCI five-dose assay; format: cell-based; details: Non-Small-Cell Lung Cancer A549/ATCC
NCI-H23 = assay: NCI five-dose assay; format: cell-based; details: Non-Small-Cell Lung Cancer NCI-H23
SF-268 = assay: NCI five-dose assay; format: cell-based; details: Homo sapiens, CNS Cancer SF-268
CAKI-1 = assay: NCI five-dose assay; format: cell-based; details: Renal Cancer CAKI-1
TK-10 = assay: NCI five-dose assay; format: cell-based, human; details: Renal Cancer TK-10
NCI-H226 = assay: NCI five-dose assay; format: cell-based; details: Homo sapiens, Non-Small-Cell Lung Cancer NCI-H226
SNB-19 = assay: NCI five-dose assay; format: cell-based; details: CNS Cancer SNB-19
SK-MEL-5 = assay: NCI five-dose assay; format: cell-based; details: Melanoma SK-MEL-5
SW-620 = assay: NCI five-dose assay; format: cell-based, human; details: Colon Cancer SW-620
RPMI-8226 = assay: NCI five-dose assay; format: cell-based; details: Leukemia RPMI-8226
SK-MEL-28 = assay: NCI five-dose assay; format: cell-based; details: Melanoma SK-MEL-28
DU-145 = assay: NCI five-dose assay; format: cell-based; details: Homo sapiens, Prostate Cancer DU-145
HCT-116 = assay: NCI five-dose assay; format: cell-based; details: Colon Cancer HCT-116
RXF393 = assay: NCI five-dose assay; format: cell-based; details: Renal Cancer RXF393
HS 578T = assay: NCI five-dose assay; format: cell-based; details: Breast Cancer HS 578T
SR cancer cell line = assay: Annexin V/PI flow cytometry; format: cell-based, human; details: 24 h, at IC50, second value printed in the panel of Figure 11
Description: Figure 11 Contour diagram of annexin V/PI flow cytometry against SR cancer cell line. […] The test was repeated three times. Following incubation for 24 h, cells were analyzed by flow cytometry after double staining with annexin V/PI.

HL-60(TB) = assay: NCI five-dose assay; format: cell-based; details: Leukemia HL-60(TB)
ACHN = assay: NCI five-dose assay; format: cell-based; details: Renal Cancer ACHN
HCC-2998 = assay: NCI five-dose assay; format: cell-based; details: Colon Cancer HCC-2998
HT29 = assay: NCI five-dose assay; format: cell-based; details: Colon Cancer HT29
SR = assay: NCI five-dose assay; format: cell-based; details: Leukemia SR
NCI/ADR-RES = assay: NCI five-dose assay; format: cell-based; details: Homo sapiens, Ovarian Cancer NCI/ADR-RES
[2] = Homo sapiens, read-out: GI50 Concentration/Cell Line
[3] = Homo sapiens, read-out: LC50 (the source's name)
[4] = read-out: GI50 Concentration/Cell Line

COC(=O)C=C1SC(=NNC(=O)c2cc3ccc2CCc2ccc(cc2)CC3)N(c2ccccc2)C1=O [Compound 3a]
GI50 (786-0; [2]): 2 µM | CC50 (786-0; [3]): 9.58 µM | TGI Concentration/Cell Line (786-0): 4.38 µM | TGI Concentration/Cell Line (COLO 205): 4.61 µM | GI50 (COLO 205; [2]): 2.13 µM | LC50 (concentration causing 50% net cell kill) (SK-MEL-2; Homo sapiens): > 100 µM | GI50 (SK-MEL-2; [2]): 2.65 µM | TGI Concentration/Cell Line (SK-MEL-2): 7.76 µM | GI50 ([1]; full panel, read-out: MID^a (GI50, average sensitivity of all cell lines)): 2.38 µM | GI50 ([1]; nine subpanels, read-out: GI50 range over tested cell lines): 1.52 to 7.56 µM | MID^c (TGI, average sensitivity of all cell lines) ([1]; full panel): 21.1 µM | LC50 (M14): > 100 µM | GI50 (M14; [4]): 3.27 µM | LC50 (concentration killing 50% of cells) (LOX IMVI): 6.75 µM | GI50 (LOX IMVI; [4]): 1.69 µM | GI50 (A549/ATCC; [2]): 2.83 µM | CC50 (A549/ATCC; [3]): > 100 µM | TGI Concentration/Cell Line (A549/ATCC): 8.00 µM | LC50 (NCI lethal concentration, 50% cell kill) (NCI-H23; Homo sapiens): 8.85 µM | GI50 (NCI-H23; [2]): 1.95 µM | TGI Concentration/Cell Line (NCI-H23): 4.15 µM | GI50 (SF-268; [4]): 3.09 µM | CC50 (SF-268; read-out: LC50 (the source's name)): > 100 µM | GI50 (CAKI-1; [2]): 1.52 µM | CC50 (CAKI-1; [3]): 9.78 µM | TGI Concentration/Cell Line (CAKI-1): 3.00 µM | GI50 (TK-10; [2]): 2.03 µM | TGI Concentration/Cell Line (TK-10): 5.60 µM | LC50 (concentration killing 50% of tumour cells) (NCI-H226): > 100 µM | GI50 (NCI-H226; [4]): 4.38 µM | TGI Concentration/Cell Line (SNB-19): 4.25 µM | LC50 (concentration killing 50% of cells) (SNB-19; Homo sapiens): 9.26 µM | GI50 (SNB-19; [2]): 1.95 µM | LC50 (SK-MEL-5; Homo sapiens): > 100 µM | GI50 (SK-MEL-5; [2]): 7.56 µM | TGI Concentration/Cell Line (SK-MEL-5): >100 µM | TGI Concentration/Cell Line (SW-620): 3.66 µM | LC50 (concentration killing 50% of cells) (SW-620; Homo sapiens): 7.23 µM | GI50 (SW-620; [2]): 1.85 µM | LC50 (RPMI-8226; Homo sapiens): > 100 µM | GI50 (RPMI-8226; [2]): 2.15 µM | TGI Concentration/Cell Line (RPMI-8226): 5.69 µM | LC50 (concentration causing 50% net cell kill) (SK-MEL-28; Homo sapiens): > 100 µM | GI50 (SK-MEL-28; [2]): 2.97 µM | TGI Concentration/Cell Line (SK-MEL-28): 9.87 µM | LC50 (DU-145): > 100 µM | GI50 (DU-145; [4]): 5.11 µM | TGI Concentration/Cell Line (HCT-116): 3.66 µM | LC50 (HCT-116; Homo sapiens): 7.51 µM | GI50 (HCT-116; [2]): 1.79 µM | LC50 (50% lethal concentration) (RXF393; Homo sapiens, RXF 393): > 100 µM | TGI Concentration/Cell Line (RXF393): 3.86 µM | TGI Concentration/Cell Line (HS 578T): >100 µM | GI50 (HS 578T; [2]): 3.49 µM | CC50 (HS 578T; [3]): > 100 µM | percentage of cells in late apoptosis (upper right quadrant) (SR cancer cell line): 19% | GI50 (HL-60(TB); [2]): 2.7 µM | CC50 (HL-60(TB); [3]): > 100 µM | TGI Concentration/Cell Line (HL-60(TB)): >100 µM | GI50 (ACHN; [2]): 1.78 µM | CC50 (ACHN; [3]): 6.08 µM | TGI Concentration/Cell Line (ACHN): 3.29 µM | TGI Concentration/Cell Line (HCC-2998): 3.45 µM | LC50 (HCC-2998; Homo sapiens): 6.68 µM | GI50 (HCC-2998; [2]): 1.78 µM | TGI Concentration/Cell Line (HT29): 4.07 µM | LC50 (HT29; Homo sapiens, HT-29): 8.56 µM | GI50 (HT29; Homo sapiens, HT-29, read-out: GI50 Concentration/Cell Line): 1.93 µM | GI50 (SR; [2]): 2.46 µM | CC50 (SR; [3]): > 100 µM | TGI Concentration/Cell Line (SR): >100 µM | LC50 (NCI/ADR-RES): > 100 µM | GI50 (NCI/ADR-RES; [4]): 2.92 µM
